Values after ≈ are worked out from the molar mass of the structure shown. Values joined by “and” are separate entries in the source; they are usually repeats but may differ in a detail not shown here. Identical values can stand only once. Like-named read-outs stand apart in the source and are kept apart here.
Tests used:
in vivo = details: rat
Description: The animals were anesthetized while dosing. […] Samples were frozen until processed for LC-MS analysis.
(§1) The equipment used was a SCIEX PE 3000.
(§2) The supernatant extract was subject to LCMS analysis.

[1] = Rat in situ intra-tracheal infusion of THX-polymer formulation; assay type: in vivo; details: 8 mg/kg
Experimental: A pilot study of in situ intra-tracheal infusion was performed to estimate tracheal and lung tissue levels after in situ intra-tracheal infusion of THX-polymer formulation.
Two rats (immediately after termination) were intra-tracheally infused over 30 mins with a THX-polymer formulation. The dose was 8 mg/kg and volume was 200 μl. After infusion these were wrapped for 2 hours in a warm heating pad. Tracheo-bronchial and lung tissue were harvested after wiping the lumen area of the tracheo-bronchial lumen with a tissue and spatula (to take off any adsorbed drug) at the end of 2 hours. Samples were frozen at −80 C until processed and analyzed by LC-MS. Sample extraction was conducted at AraVasc Inc. The processed samples were analyzed at Alta Analytical laboratories by LC-MS.
as §1, §2

[2] = Solubility of analytes and polymer in solvents, dissolution media and water; assay type: physicochemical
[3] = Drug distribution 28-day PK study in naïve mice implanted with ETDS; assay type: in vivo; details: for Distribution of drugs from the implants in vivo: subcutaneous ETDS implants in mice
Experimental: An in vivo 28-day PK and drug distribution studies was conducted to understand drug distribution and the release profile/duration of drug-released from the different ETDS.
Nine mice were subcutaneously implanted with the same ETDS as implanted in the efficacy study. […] […] Three animals were terminated at each of these time points. Drug distribution in the plasma and skin tissue was analyzed by LC-MS. The preclinical stents were explanted and assayed for residual drug.

liver and lung cancer = details: preliminary reports, clinical trials; cited from earlier work
[4] = administered systemically; cited from earlier work
[5] = Drug levels in tumor-bearing mice at efficacy study termination; assay type: in vivo; details: for Drug Exposure, Tumor Tissue / Drug Exposure, Plasma: efficacy study; for Drug Exposure, Tumor Tissue: day 28-47; for Drug Exposure, Plasma: day 28-47, n = 8; for Explanted ETDS (Residual - efficacy): n = 3, ETDS 125 ± 25 ug total drug (1:1)
Experimental: The fast release mini-ETDS ensured the highest dose delivery. Coated or uncoated fast release preclinical ETDS were implanted in contact with tumor (300 mm^3), 14 days after inoculation of human esophageal-gastric cancer line NUGC4-GFP into nude mice. Tumor growth inhibition was evaluated over 47 day period post-implantation (FIG. 24). […] The projected in vivo dose/day based on an assumption of constant release after the initial ‘burst-effect’, is about 0.45 mg/kg/day.
A drug-dye distribution study was conducted in naïve mice. Plasma, skin tissue at implant site and skin tissue at contralateral site was sampled at defined intervals ranging from 2 hours-28 days. Similarly, plasma and tumor tissue was sampled at efficacy study termination at either 28 or […] days post implantation.
Drug-dye exposure levels in each of these biological samples was quantitated by LC-MS to obtain correlations between efficacious levels of exposure and release profile in naïve mice.
The LCMS analysis was conducted using validated bioanalytical methods discussed below except for HCFU. […] Samples were processed and analyzed immediately. Values may be underestimated.

[6] = Stability of ICG and HCFU (pH, dissolution media, ETDS product); assay type: physicochemical
Description: A suboptimal pH (4) for the dissomedia was chosen to preserve both and simultaneously quantitate them as they eluted.
A suboptimal but workable pH 4 was chosen to evaluate the release profile.

[7] = under physiological conditions and under acidic conditions (pH<4); cited from earlier work
[8] = cited from earlier work
[9] = 200 μl, infused over 30 mins, harvested at 2 hours, individual rats
[10] = DMF, organic solvent or mixture, read-out: Solubility
[11] = DMSO, organic solvent or mixture, read-out: Solubility
[12] = THF, organic solvent or mixture, read-out: Solubility
[13] = acetonitrile, organic solvent or mixture, read-out: Solubility
[14] = dissolution media, read-out: Solubility
[15] = Day 4, FR ETDS, individual mice
[16] = Day 4, fast release (FR) ETDS, individual mice
[17] = Day 7, FR ETDS, individual mice
[18] = Day 14, FR ETDS, individual mice
[19] = Day 28, FR ETDS, individual mice
[20] = mouse, plasma, subcutaneous, Day 28, FR ETDS, individual mice, read-out: Plasma Conc.
[21] = mouse, skin tissue at implantation site, subcutaneous, Day 14, FR ETDS, individual mice, read-out: Tissue Conc. site of implant
[22] = mouse, skin tissue at implantation site, subcutaneous, Day 28, FR ETDS, individual mice, read-out: Tissue Conc. site of implant

SMILES	solubility [2, 10]	solubility [2, 11]	solubility [2, 12]	solubility [2, 13]	solubility [2, 14]	solubility ([2]; water, read-out: Solubility)	Tissue Conc. site of implant [3, 15]	Plasma Conc. [3, 16]	Plasma Conc. [3, 17]	Tissue Conc. site of implant [3, 17]	Plasma Conc. [3, 18]	Tissue Conc. site of implant [3, 18]	Plasma Conc. [3, 19]	Tissue Conc. site of implant [3, 19]	concentration at 28 day [3, 20]	concentration at 14 day [3, 21]	pulmonary toxicities [4]	Distribution of drugs from the implants in vivo [3]	Explanted ETDS (Residual - efficacy) [5]	concentration at 28 day [3, 22]	further results
O=C1CCC(N2C(=O)c3ccccc3C2=O)C(=O)N1 (racemic) [THX, 2-(2,6-dioxo-3-piperidinyl)-1H-isoindole-1,3(2H)-dione]	75.5 mg/mL (≈ 292 mM)	56 mg/mL (≈ 217 mM)	3.34 mg/mL (≈ 12.9 mM)	0.79 mg/mL (≈ 3.06 mM)	3.34 mg/mL (≈ 12.9 mM)	1.5 mg/mL (≈ 5.81 mM)	387 ng/g and 338 ng/g and 6410 ng/g	0.95 ng/mL and 3.26 ng/mL and 0.00 ng/mL	7.27 ng/mL and 9.27 ng/mL	22.5 ng/g and 66.5 ng/g and 18.4 ng/g	2.26 ng/mL and 7.55 ng/mL	15.9 ng/g and 16.8 ng/g	13.7 ng/mL and 7.79 ng/mL	20.2 ng/g and 34.0 ng/g and 15.8 ng/g	9.03 ng/mL	30.9 ng/g	No pulmonary toxicities				concentration at 20 min (in vivo; 4 mg/Kg): 190 ng/mL; concentration at 40 min (in vivo; 4 mg/Kg): 440 ng/mL; THX levels in lung tissue (in vivo; 12 mg/kg): High levels; THX levels in plasma (in vivo; 12 mg/kg): low levels; Tissue Levels Lung [1, 9]: 0.75 μg/100 mg and 0.58 μg/100 mg; Tissue Levels Trachea [1, 9]: 211.21 μg/100 mg and 290.36 μg/100 mg; THX levels in tracheo-bronchial and lung tissue ([1]; in situ infusion (0.5 hr)): High levels; concentration at 2 h ([1]; rat, lung, other: in situ intra-tracheal infusion, 200 μl, infused over 30 mins, harvested at 2 hours, individual rats, read-out: Tissue Levels Lung): 5800 ng/g; concentration at 7 day ([3]; mouse, plasma, subcutaneous, Day 7, FR ETDS, individual mice, read-out: Plasma Conc.): 5.42 ng/mL; disease control rates (liver and lung cancer): 8%-57%; response rates (liver and lung cancer): 4%-10%
CCCCCOC(=O)Nc1nc(=O)n([C@@H]2O[C@H](C)[C@@H](O)[C@H]2O)cc1F [CPX, Capecitabine]	> 50 mg/mL	> 50 mg/mL	> 50 mg/mL	> 0.4 mg/mL	> 10 mg/mL	> 10 mg/mL															
O=c1[nH]cc(F)c(=O)[nH]1 [FLX, 5-fluorouracil]	45.8 mg/mL (≈ 352 mM)	59 mg/mL (≈ 454 mM)	42.1 mg/mL (≈ 324 mM)	1.81 mg/mL (≈ 13.9 mM)	42.1 mg/mL (≈ 324 mM)	> 20 mg/mL												High levels			
CCCCCCNC(=O)n1cc(F)c(=O)[nH]c1=O [HCFU, Carmofur]	> 50 mg/mL	> 50 mg/mL	> 50 mg/mL	> 0.4 mg/mL	0.05 to 0.06 mg/mL (≈ 0.194 to 0.233 mM)	0.02 to 0.03 mg/mL (≈ 0.0777 to 0.117 mM)													2.1 µg		concentration at 28 day ([3]; mouse, plasma, subcutaneous, HCFU, naïve mice, day 28, n = 3, read-out: Drug Exposure, Plasma): 48.2 ng/mL; concentration at 28 day ([3]; mouse, subcutaneous tissue, subcutaneous, HCFU, naïve mice, day 28, n = 3, read-out: Drug Exposure, Subcutaneous Tissue): 43.3 ng/mL; Drug Exposure, Tumor Tissue ([5]; HCFU): 54.1 ng/mL; Drug Exposure, Plasma ([5]; HCFU, tumor-bearing mice): 59 ng/mL and 58.97 ng/mL; Tumor tissue exposure at steady state, average ([5]; HCFU, termination day 28-47): 54 ng/gm; Stability in the dissolution media ([6]; pH>3): unstable; Stability ([6]; pH>4): not stable; Stability ([6]; physiological pH): limited stability
CC1(C)C(/C=C/C=C/C=C/C=C2\N(CCCCS(=O)(=O)O)c3ccc4ccccc4c3C2(C)C)=[N+](CCCCS(=O)(=O)[O-])c2ccc3ccccc3c21 [ICG, Indocyanine green]							15.3 ng/g and 32.4 ng/g and 20.9 ng/g	2.39 ng/mL and 3.76 ng/mL	3.23 ng/mL and 0 ng/mL and 2.26 ng/mL	13.2 ng/g and 12.4 ng/g and 35.9 ng/g	2.23 ng/mL and 0 ng/mL (2×)	13.1 ng/g and 14 ng/g	2.24 ng/mL and 2.26 ng/mL	11.8 ng/g and 11.9 ng/g	2.39 ng/mL	12.2 ng/g		remained confined to the site of implantation		12.1 ng/g	concentration at 4 day ([3]; mouse, plasma, subcutaneous, Day 4, fast release (FR) ETDS, individual mice, read-out: Plasma Conc.): 3.89 ng/mL; Stability ([6]; acidic pH<4): not stable; Stability in the dissolution media ([6]; pH<3): unstable; half life t1/2 [7]: < 2 min; in-vivo protein binding [8]: about 95%
CC(=O)O[C@H]1C(=O)[C@@]2(C)[C@H]([C@H](OC(=O)c3ccccc3)[C@]3(O)C[C@H](OC(=O)[C@H](O)[C@@H](NC(=O)c4ccccc4)c4ccccc4)C(C)=C1C3(C)C)[C@]1(OC(C)=O)CO[C@@H]1C[C@@H]2O [PTX, Paclitaxel]	154 mg/mL (≈ 181 mM)	27.2 mg/mL (≈ 31.9 mM)		44.3 mg/mL (≈ 51.9 mM)	0.05 to 0.06 mg/mL (≈ 0.0586 to 0.0703 mM)	> 20 mg/mL	18000 ng/g and 6270 ng/g and 6990 ng/g	BLOQ	BLOQ	22000 ng/g and 10300 ng/g and 47000 ng/g	BLOQ	16500 ng/g and 10400 ng/g and 21600 ng/g	BLOQ	12800 ng/g and 10600 ng/g			No pulmonary toxicities		15.4 µg	18900 ng/g	solubility ([2]; THF): 41.7 mg/mL (≈ 48.8 mM); Explanted ETDS Conc. (residual drug) ([3]; Day 14 explanted FR ETDS): 12.30 µg and 14.82 µg and 15.13 µg; Drug Exposure, Plasma ([3]; PTX, naïve mice, day 28, n = 3): BLOQ; concentration at 28 day ([3]; mouse, subcutaneous tissue, subcutaneous, PTX, naïve mice, day 28, n = 3, read-out: Drug Exposure, Subcutaneous Tissue): 12100 ng/g; Drug Exposure, Tumor Tissue ([5]; PTX): 9,668 ng/gm; Drug Exposure, Plasma ([5]; PTX, tumor-bearing mice): 1.53 ng/gm; Average levels detected in plasma ([5]; PTX, tumor-bearing mice): 1.5 ng/mL
